Test results published in the supplement of paper PMC10307832.

Compound: O=C(c1cc(Cc2n[nH]c(=O)c3ccccc23)ccc1F)N1CCN(C(=O)C2CC2)CC1 [Olaparib] + CS(=O)(=O)N1CCN(Cc2cc3nc(-c4cccc5[nH]ncc45)nc(N4CCOCC4)c3s2)CC1 [Pictilisib] (partner 1 µM)
Assay: relative viability (nuclei count vs DMSO), 5 days (fraction); higher = more cells survive
Conditions: first compound 0.08 µM
Summary of the method: (§1)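 Values are medians from duplicate plates. Each reflects relative viability, defined as the nuclei count of treated wells over that of vehicle wells. Lung cancer cell lines in 1536-well plates were pin-tool dosed one day after seeding with one drug alone or with a fixed anchor-drug dose plus five library-drug doses (not always all listed) in √10 steps, then fixed, stained and imaged at 4× after 5 days.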

Cell Line	relative viability
NCI-H647	0.66
NCI-H650	1.03
NCI-H727	0.416
NCI-H838	0.452
NCI-H1355	0.537
NCI-H1437	0.373
NCI-H1651	0.62
NCI-H1666	0.637
NCI-H1734	0.469
NCI-H1755	0.553
NCI-H1792	0.265
NCI-H1915	0.928
NCI-H1944	0.363
NCI-H1975	0.309
NCI-H1993	0.827
NCI-H2085	0.468
NCI-H2087	0.967
NCI-H2126	0.544
NCI-H2170	0.346
NCI-H2347	1.28
NCI-H2405	0.524
NCI-H3122	0.629
PC-3 [JPC-3]	0.857
PC-14	0.872
RERF-LC-KJ	0.491

Same assay, conditions: first compound 0.253 µM

Cell Line	relative viability
NCI-H650	0.912
NCI-H727	0.446
NCI-H838	0.439
NCI-H1355	0.397
NCI-H1437	0.395
NCI-H1651	0.562
NCI-H1666	0.33
NCI-H1734	0.471
NCI-H1755	0.383
NCI-H1792	0.241
NCI-H1915	0.845
NCI-H1944	0.319
NCI-H1975	0.27
NCI-H1993	0.839
NCI-H2085	0.433
NCI-H2087	0.797
NCI-H2126	0.504
NCI-H2170	0.277
NCI-H2347	0.557
NCI-H2405	0.406
NCI-H3122	0.532
PC-3 [JPC-3]	0.592
PC-14	0.59
RERF-LC-KJ	0.522

Same assay, conditions: first compound 2.53 µM

Cell Line	relative viability
NCI-H647	0.486
NCI-H650	0.661
NCI-H727	0.352
NCI-H838	0.519
NCI-H1355	0.408
NCI-H1437	0.501
NCI-H1651	0.599
NCI-H1666	0.488
NCI-H1734	0.419
NCI-H1755	0.405
NCI-H1792	0.265
NCI-H1915	0.746
NCI-H1944	0.328
NCI-H1975	0.284
NCI-H1993	0.719
NCI-H2085	0.427
NCI-H2087	0.8
NCI-H2126	0.513
NCI-H2170	0.305
NCI-H2347	0.683
NCI-H2405	0.426
NCI-H3122	0.587
PC-3 [JPC-3]	0.712
PC-14	0.601
RERF-LC-KJ	0.648

Same assay, conditions: first compound 8 µM

Cell Line	relative viability
NCI-H647	0.515
NCI-H650	0.748
NCI-H727	0.284
NCI-H838	0.408
NCI-H1355	0.444
NCI-H1437	0.381
NCI-H1651	0.331
NCI-H1666	0.52
NCI-H1734	0.336
NCI-H1755	0.338
NCI-H1792	0.217
NCI-H1915	0.473
NCI-H1944	0.351
NCI-H1975	0.266
NCI-H1993	0.869
NCI-H2085	0.368
NCI-H2087	0.508
NCI-H2126	0.556
NCI-H2170	0.332
NCI-H2347	0.547
NCI-H2405	0.469
NCI-H3122	0.627
PC-3 [JPC-3]	0.673
PC-14	0.466
RERF-LC-KJ	0.526

Compound: O=C(c1cc(Cc2n[nH]c(=O)c3ccccc23)ccc1F)N1CCN(C(=O)C2CC2)CC1 [Olaparib] + C[C@@H](Oc1cc(-c2cnn(C3CCNCC3)c2)cnc1N)c1c(Cl)ccc(F)c1Cl [Crizotinib] (partner 1 µM)
Assay: as above
Conditions: first compound 0.08 µM
Summary of the method: as §1

Cell Line	relative viability
NCI-H647	1.23
NCI-H650	0.899
NCI-H727	0.934
NCI-H838	0.882
NCI-H1355	1.17
NCI-H1437	1.07
NCI-H1651	0.882
NCI-H1666	1.09
NCI-H1734	0.691
NCI-H1755	0.957
NCI-H1792	1.03
NCI-H1915	0.934
NCI-H1944	1.06
NCI-H1975	1.04
NCI-H1993	0.967
NCI-H2085	0.911
NCI-H2087	1.02
NCI-H2126	1.12
NCI-H2170	1.23
NCI-H2347	0.672
NCI-H2405	0.948
NCI-H3122	0.266
PC-3 [JPC-3]	1
PC-14	0.883
RERF-LC-KJ	0.811

Same assay, conditions: first compound 0.253 µM

Cell Line	relative viability
NCI-H647	0.914
NCI-H650	0.713
NCI-H727	0.737
NCI-H838	0.774
NCI-H1355	1.01
NCI-H1437	0.814
NCI-H1651	0.782
NCI-H1666	0.777
NCI-H1734	0.681
NCI-H1755	0.824
NCI-H1792	0.82
NCI-H1915	0.774
NCI-H1944	0.926
NCI-H1975	0.906
NCI-H1993	0.954
NCI-H2085	0.657
NCI-H2087	0.738
NCI-H2126	0.967
NCI-H2170	1.15
NCI-H2347	0.657
NCI-H2405	0.83
NCI-H3122	0.292
PC-3 [JPC-3]	0.902
PC-14	0.824
RERF-LC-KJ	0.775

Same assay, conditions: first compound 2.53 µM

Cell Line	relative viability
NCI-H647	0.923
NCI-H650	0.623
NCI-H727	0.671
NCI-H838	0.779
NCI-H1355	1.02
NCI-H1437	0.903
NCI-H1651	0.669
NCI-H1666	0.685
NCI-H1734	0.647
NCI-H1755	0.904
NCI-H1792	0.843
NCI-H1915	0.552
NCI-H1944	0.814
NCI-H1975	0.945
NCI-H1993	0.987
NCI-H2085	0.74
NCI-H2087	0.78
NCI-H2126	0.957
NCI-H2170	1.4
NCI-H2347	0.705
NCI-H2405	0.769
NCI-H3122	0.266
PC-3 [JPC-3]	1.01
PC-14	0.849
RERF-LC-KJ	0.911

Same assay, conditions: first compound 8 µM

Cell Line	relative viability
NCI-H647	0.675
NCI-H650	0.615
NCI-H727	0.48
NCI-H838	0.742
NCI-H1355	0.923
NCI-H1437	0.618
NCI-H1651	0.439
NCI-H1666	0.602
NCI-H1734	0.553
NCI-H1755	0.728
NCI-H1792	0.794
NCI-H1915	0.445
NCI-H1944	0.676
NCI-H1975	0.916
NCI-H1993	1.07
NCI-H2085	0.77
NCI-H2087	0.688
NCI-H2126	0.969
NCI-H2170	1.11
NCI-H2347	0.622
NCI-H2405	0.809
NCI-H3122	0.28
PC-3 [JPC-3]	0.928
PC-14	0.657
RERF-LC-KJ	0.755

Compound: O=C(c1cc(Cc2n[nH]c(=O)c3ccccc23)ccc1F)N1CCN(C(=O)C2CC2)CC1 [Olaparib] + Cc1nc(NC(=O)N2CCC[C@H]2C(N)=O)sc1-c1ccnc(C(C)(C)C(F)(F)F)c1 [Alpelisib] (partner 2 µM)
Assay: as above
Conditions: first compound 0.08 µM
Summary of the method: as §1

Cell Line	relative viability
NCI-H647	1.41
NCI-H650	1.33
NCI-H727	0.607
NCI-H838	1.09
NCI-H1355	0.804
NCI-H1437	0.987
NCI-H1651	0.927
NCI-H1666	1.01
NCI-H1734	0.669
NCI-H1755	1.05
NCI-H1792	0.675
NCI-H1915	0.986
NCI-H1944	0.881
NCI-H1975	0.764
NCI-H1993	0.691
NCI-H2085	1.08
NCI-H2087	1.21
NCI-H2126	0.794
NCI-H2170	0.846
NCI-H2347	1.11
NCI-H2405	1.01
NCI-H3122	0.7
PC-3 [JPC-3]	1.01
PC-14	0.988
RERF-LC-KJ	0.826

Same assay, conditions: first compound 0.253 µM

Cell Line	relative viability
NCI-H647	1.05
NCI-H650	1.17
NCI-H727	0.527
NCI-H838	0.933
NCI-H1355	0.716
NCI-H1437	0.987
NCI-H1651	0.869
NCI-H1666	0.945
NCI-H1734	0.612
NCI-H1755	0.867
NCI-H1792	0.596
NCI-H1915	0.938
NCI-H1944	0.743
NCI-H1975	0.594
NCI-H1993	0.657
NCI-H2085	0.883
NCI-H2087	0.95
NCI-H2126	0.743
NCI-H2170	0.838
NCI-H2347	0.978
NCI-H2405	0.816
NCI-H3122	0.638
PC-3 [JPC-3]	1.01
PC-14	0.859
RERF-LC-KJ	0.806
